How the values were obtained:
Format in all cases: cell-based
[1] = molecular target: T1, β5i subunit of the 20S proteasome (Homo sapiens, UniProt P20618+P28062); test: Proteasome inhibitory activity, β5i subunit (Raji cells treated with compound, lysed, Ac-ANW-AMC substrate); conditions: proteasome from Raji cells incubated with compound 4 h
T1 construct: The proteasome tested in the present disclosure was derived from Raji cells; endogenous in cells; host or cells: Raji cells
How it was run: (§1)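 Raji cells were treated for 4 h at 37 °C with compound (from 1 μM, 3-fold, 8 concentrations), then lysed. Lysate activity was read 10 min at 37 °C with Ac-ANW-AMC (β5i) or Suc-LLVY-AMC (β5c) at 345/445 nm. Percent inhibition was relative to DMSO-treated lysate.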

MM.1S cell strain = test: Inhibitory activity of cell strain (CellTiter-Glo); conditions: Homo sapiens, MM1.S, 72 h incubation
How it was run: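 Cells seeded at 1×10^5 per well in RPMI1640 complete medium for 24 h, then treated 72 h at 37 °C, 5% CO2 with 3-fold dilutions, final 5×10^−7 M down to 2.29×10^−10 M. CellTiter-Glo luminescence; inhibition calculated against DMSO-only cells and medium-only blanks.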

[2] = molecular target: T2, β5c subunit of the 20S proteasome (Homo sapiens, UniProt P20618+P28074); test: Proteasome inhibitory activity, β5c subunit (Raji cells treated with compound, lysed, Suc-LLVY-AMC substrate); conditions: proteasome from Raji cells incubated with compound 4 h
T2 construct: The proteasome tested in the present disclosure was derived from Raji cells; endogenous in cells; host or cells: Raji cells
How it was run: as §1

Measured: IC50

Cc1ccc(C[C@H](NC(=O)C(C)C(=O)NCc2ccc(Cl)cc2Cl)B(O)O)cc1 (stereo partly drawn) [Example 59, ((1R)-1-(3-((2,4-dichlorobenzyl)amino)-2-methyl-3-oxopropionamido)-2-(p-tolyl)ethyl)boric acid]
≤ 50 nM: all assays above

COc1cccc(CCNC(=O)C(C)C(=O)N[C@@H](Cc2coc3ccccc23)B(O)O)c1 (stereo partly drawn) [Example 63, ((1R)-2-(benzofuran-3-yl)-1-(3-((3-methoxyphenylethyl)amino)-2-methyl-3-oxopropionamido)ethyl)boric acid]
≤ 50 nM: all assays above

Reference: patent publication US20250346613A1, “BORIC ACID PROTEASOME INHIBITOR AND USE THEREOF” (ARTIVILA BIOPHARMA, priority 2022, published 2025)
